# Source: ChEMBL document CHEMBL1156613, “Potent and selective pyrazole-based inhibitors of B-Raf kinase” (Bioorg Med Chem Lett, 2008)
# Calls of active or inactive are those of the source. The calls are words filed in the database; no cut-off is given here.
# Assays:
# [1] = biological target: Serine/threonine-protein kinase B-raf (Homo sapiens, UniProt P15056); assay: Inhibition of human recombinant B-Raf by fluorescence anisotropy
# [2] = biological target: Mitogen-activated protein kinase; ERK1/ERK2 (Homo sapiens, UniProt P27361+P28482); assay: Inhibition of ERK1/2 phosphorylation in human MALME3M cells; assay type: cell-based
# [3] = Aqueous solubility at pH 6.5 by shake-flask method; assay type: physicochemical; settings: aqueous medium
# Mus musculus = assay: Inhibition of ERK phosphorylation in human LOX tumor xenografted mouse at 25 mg/kg, po after 1 hrs by Western blot method; assay type: functional, organism-based; set-up: dose 25 mg/kg
# Sequence of Serine/threonine-protein kinase B-raf (P15056 whole entry): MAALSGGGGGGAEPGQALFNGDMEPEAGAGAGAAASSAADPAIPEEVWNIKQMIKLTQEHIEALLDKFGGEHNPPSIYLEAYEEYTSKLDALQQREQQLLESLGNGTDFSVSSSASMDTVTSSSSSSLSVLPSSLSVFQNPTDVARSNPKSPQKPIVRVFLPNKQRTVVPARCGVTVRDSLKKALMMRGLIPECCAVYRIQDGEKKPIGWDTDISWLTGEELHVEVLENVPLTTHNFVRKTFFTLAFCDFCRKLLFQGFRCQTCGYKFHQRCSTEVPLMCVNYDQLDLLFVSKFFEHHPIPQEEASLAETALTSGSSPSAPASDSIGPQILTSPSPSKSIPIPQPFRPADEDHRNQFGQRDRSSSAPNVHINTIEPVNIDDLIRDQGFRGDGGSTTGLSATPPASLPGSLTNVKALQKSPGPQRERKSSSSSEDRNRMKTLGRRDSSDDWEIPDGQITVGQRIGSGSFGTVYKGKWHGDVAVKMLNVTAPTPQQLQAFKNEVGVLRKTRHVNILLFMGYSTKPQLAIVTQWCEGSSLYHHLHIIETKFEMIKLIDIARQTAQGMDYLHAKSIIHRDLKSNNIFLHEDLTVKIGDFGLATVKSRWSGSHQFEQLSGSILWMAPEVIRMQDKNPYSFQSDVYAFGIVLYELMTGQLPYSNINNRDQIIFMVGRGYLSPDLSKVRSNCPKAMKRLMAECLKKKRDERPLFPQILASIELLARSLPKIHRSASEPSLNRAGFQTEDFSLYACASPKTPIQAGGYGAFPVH
SMILES,IC50 [1] [nM],IC50 [2] [nM],solubility thermodynamic [3] [µg/mL],Activity (Mus musculus)
NCCn1cc(-c2ccc3c(c2)CC/C3=N\O)c(-c2ccncc2)n1,2.4,119,–,–
CNC1CCCC(n2cc(-c3ccc4c(c3)CC/C4=N\O)c(-c3ccncc3)n2)C1 (stereo unspecified),0.23,18,–,–
Cn1cc(-c2ccc3c(c2)CC/C3=N\O)c(-c2ccc3c(cnn3C)c2)n1,970,–,–,–
OCCCn1cc(-c2ccc3c(c2)CC/C3=N\O)c(-c2ccncc2)n1,0.05,26,–,–
NCCCn1cc(-c2ccc3c(c2)CC/C3=N\O)c(-c2ccncc2)n1,0.39,20,–,–
O/N=C1\CCc2cc(-c3cn(C4CCCC4)nc3-c3ccncc3)ccc21,3.46,57,–,–
Cn1cc(-c2ccc3c(c2)CC/C3=N\O)c(-c2cccnc2)n1,434,–,–,–
O/N=C1\CCc2cc(-c3c[nH]nc3-c3ccncc3)ccc21,0.15,53,–,–
Cn1cc(-c2ccc3c(c2)CC/C3=N\O)c(-c2ccnc(N)c2)n1,2.1,1000,–,–
Cn1cc(-c2ccc3c(c2)CN/C3=N/O)c(-c2ccncc2)n1,< 2,56,590,–
Cn1cc(-c2ccc3cn[nH]c3c2)c(-c2ccncc2)n1,70,–,–,–
O/N=C1\CCc2cc(-c3cn([C@H]4CCC[C@H]4O)nc3-c3ccncc3)ccc21 (relative stereo),3.91,245,–,–
Cn1cc(-c2ccc(/C(N)=N\O)cc2)c(-c2ccncc2)n1,18.4,20000,–,–
Cn1cc(-c2ccc3c(c2)CCN/C3=N/O)c(-c2ccncc2)n1,16,10000,–,–
OCCn1cc(-c2ccc3c(c2)CC/C3=N\O)c(-c2ccncc2)n1,–,–,76,Active
Cn1cc(-c2ccc3c(c2)Cc2c[nH]nc2-3)c(-c2ccncc2)n1,1.5,1900,–,–
CCn1cc(-c2ccc3c(c2)CC/C3=N\O)c(-c2ccncc2)n1,0.57,18,–,–
Cn1cc(-c2ccc3c(c2)CC/C3=N\O)c(-c2ccncc2)n1,0.02,33,–,–
OCC(CO)n1cc(-c2ccc3c(c2)CC/C3=N\O)c(-c2ccncc2)n1,0.56,171,–,–

SMILES,IC50 [1] [nM],IC50 [2] [nM],solubility thermodynamic [3] [µg/mL],Activity (Mus musculus)
CN1CCC(n2cc(-c3ccc4c(c3)CC/C4=N\O)c(-c3ccncc3)n2)CC1,0.34,10,–,–
Cn1ncc(-c2ccc3c(c2)CC/C3=N\O)c1-c1ccncc1,0.48,165,–,–
Cn1cc(-c2ccc3c(c2)C(=O)NC3)c(-c2ccncc2)n1,68.4,–,–,–
CN(C)CCCn1cc(-c2ccc3c(c2)CC/C3=N\O)c(-c2ccncc2)n1,0.47,122,–,–
O/N=C1\CCc2cc(-c3cn(CC4CCNCC4)nc3-c3ccncc3)ccc21,1.2,332,–,–
CN(C)CCn1cc(-c2ccc3c(c2)CC/C3=N\O)c(-c2ccncc2)n1,4.02,607,–,–
Cn1cc(-c2ccc3c(c2)CC/C3=N\O)c(-c2cnco2)n1,4.1,2400,–,–
O/N=C1\CCc2cc(-c3cn(C4CCOCC4)nc3-c3ccncc3)ccc21,0.22,48,–,–
OCC(O)Cn1cc(-c2ccc3c(c2)CC/C3=N\O)c(-c2ccncc2)n1 (stereo unspecified),0.87,22,–,–
O/N=C1\CCc2cc(-c3cn(C4CCNCC4)nc3-c3ccncc3)ccc21,0.03,9,52,inactive
O/N=C1\CCc2cc(-c3cn([C@@H]4CCC[C@H](O)C4)nc3-c3ccncc3)ccc21 (relative stereo),0.04,7,3,Active
Cn1cc(-c2ccc3c(c2)CC/C3=N\O)c(-c2ccncn2)n1,3.1,1500,–,–
O/N=C1\CCc2cc(-c3cn(CC4CCCNC4)nc3-c3ccncc3)ccc21 (stereo unspecified),0.85,154,–,–
Cn1cc(-c2ccc(-c3cc[nH]n3)cc2)c(-c2ccncc2)n1,68.4,–,–,–
O/N=C1\CCc2cc(-c3cn([C@H]4CCC[C@@H]4O)nc3-c3ccncc3)ccc21 (relative stereo),0.33,37,–,–
O/N=C1\CCc2cc(-c3cn([C@@H]4CCC[C@@H](O)C4)nc3-c3ccncc3)ccc21 (relative stereo),0.09,17,–,–
Cc1c[nH]nc1-c1ccc(-c2cn(C)nc2-c2ccncc2)cc1,4.4,18000,–,–
COCCn1cc(-c2ccc3c(c2)CC/C3=N\O)c(-c2ccncc2)n1,1.16,569,–,–
Cn1cc(-c2ccc3c(c2)CC/C3=N\O)c(-c2ccnc(O)c2)n1,2.9,800,–,–
